Results taken from US20220226270A1, “VERY-LONG-CHAIN POLYUNSATURATED FATTY ACIDS, ELOVANOID HYDROXYLATED DERIVATIVES, AND METHODS OF USE” (Board of Supervisors of Louisiana State University and …, priority 2019, published 2022).

Tested on: cerebral cortical mixed neuronal cells
Assay: Oxygen glucose deprivation (OGD) in cerebral cortical mixed neuronal cultures
Format: cell-based, rat
Settings: for neuroprotection after OGD by VLC-PUFA precursor: 250 nM, added after OGD exposure; for neuroprotection compared to OGD alone (Hoechst-positive nuclei, calcein-positive cell counting or MTT): 90 mins OGD, added after 2 h of reoxygenation at 200 nM, 500 nM or 1 μM, cortical mixed or hippocampal neurons; for frequency distribution of pyknotic vs non-pyknotic nuclei (nuclear size peak) after OGD: 500 nM, DIV 12, 90 min OGD, Hoechst
Excerpt: Primary cultures of cortical neurons: Primary cultures of cortical and hippocampal neurons were harvested from 18-day-old embryos (E18) taken from timed-pregnant, two-month-old Sprague-Dawley (SD) rats (Charles River Lab., Wilmington, Mass.). Briefly, timed-pregnant SD rats were euthanized and embryos were collected in sterile conditions. Embryonic brains were dissected out by forceps on ice and placed in a petri dish containing ice-cold Hank's Balanced Salt Solution (HBSS) (GIBCO). Meninges were removed under a dissecting microscope and cortical tissues were chopped into small pieces with micro-spring scissors. These tissues were transferred to 15 ml tubes containing trypsin-EDTA (0.025% in HBSS) and DNase I. The tubes were incubated in 37° C. chamber for 15 mins and were agitated every 5 mins. After stopping the trypsinization with 5 ml 10% FBS, these tissues were triturated 15 times with a fire polished Pasteur pipet. Cell clumps were left to settle for 2 mins and the supernatant was transferred to a 15 ml Eppendorf tube. The supernatant was filtered through a 70 μm pore-sized filter (Corning cell strainer) and centrifuged for 5 mins at 1000 rpm. The cells were then resuspended in Neurobasal medium (GIBCO) containing 2% B27 (GIBCO) and 2% N2 (GIBCO) supplements, along with 0.5 mM glutamine, 50 U/ml penicillin/streptomycin.
Cells were counted using a Neubauer hemocytometer. 1×10^6 cells were seeded on poly-D-lysine-coated 12 well cell culture dish (CORNING) and cultured in incubator (37° C., 5% CO2). Culture medium was first replaced after 24 h, then half of the medium was replaced with fresh medium every three days. As a result, approximately, 90% purity of neurons was obtained as determined by class-III-β tubulin, GFAP and Hoechst 33258 staining. Cells were maintained in culture for about 2 weeks until they were exposed to uncompensated oxidative stress, OGD, or NMDA excitotoxicity.
Oxygen glucose deprivation (OGD), NMDA excitotoxicity or uncompensated oxidative stress (UOS) exposure: An in vitro oxygen glucose deprivation (OGD) model was established. Primary cortical neurons were cultured from SD rat embryos. On day in vitro (DIV) 12, cells were washed with phosphate-buffered saline and incubated in glucose-free Neurobasal medium (GIBCO) for 30 mins. The cells were then placed in a modular incubator chamber and incubated in an anaerobic chamber (95% N2, 5% CO2) at 37° C. for 90 mins for OGD.
After 90 mins of OGD exposure, cells were returned to the original medium (Neurobasal medium (GIBCO) containing 2% B27 (GIBCO) and 2% N2 (GIBCO) supplements, along with 0.5 mM glutamine, 50 U/ml penicillin/streptomycin) and placed in a normoxic chamber (37° C., 5% CO2) for 2 h. Then the medium was changed with medium containing either ELV-N32 or ELV-N34 [500 nM] and maintained in a normoxic chamber (37° C., 5% CO2) for 12 h, after which cells were sampled and assayed for cell viability using different methods as previously described (25-28). Cerebral cortical mixed neuronal cells or hippocampal cells in culture were exposed to either NMDA or uncompensated oxidative stress (UOS) for 12 h by addition of either NMDA (25 μM, 50 μM, or 100 μM) concentration or by the addition of TNFα (10 ng/mL) and H2O2 (50 μM, 100 μM, or 200 μM). Cell viability and neuroprotection in the presence of ELV-N32, ELV-N34, 32:6, or 34:6 were assayed after 12 h.
Hoechst staining and unbiased image analysis: Cells were washed with 1× Dulbecco's Phosphate Buffered Saline (DPBS) containing no calcium or magnesium (GIBCO) and fixed for 10 mins using ice-cold 4% paraformaldehyde (PFA) followed by 15 mins incubation in 100% methanol. Cells were washed with 1× Phosphate Buffered Saline (PBS) pH 7.4 (GIBCO) and incubated in PBS containing 20 μM Hoechst 33258 (Molecular Probes) for 20 mins. Cells were then washed 3 times with 1× PBS and stored in 1× PBS at 4° C. until they were imaged for microscopy. […]

| SMILES | neuroprotection compared to OGD alone (Hoechst-positive nuclei, calcein-positive cell counting or MTT) | frequency distribution of pyknotic vs non-pyknotic nuclei (nuclear size peak) after OGD | further results |
| --- | --- | --- | --- |
| CC/C=C\C/C=C\C/C=C\C/C=C\C/C=C\C/C=C\CCCCCCCCCCCCC(=O)O [32:6n3, (14Z,17Z,20Z,23Z,26Z,29Z)-dotriaconta-14,17,20,23,26,29-hexaenoic acid] | – | – | neuroprotection after OGD by VLC-PUFA precursor: provide neuroprotection |
| CC/C=C\C/C=C\C/C=C\C/C=C\C/C=C\C/C=C\CCCCCCCCCCCCCCC(=O)O [34:6n3, (16Z,19Z,22Z,25Z,28Z,31Z)-tetratriaconta-16,19,22,25,28,31-hexaenoic acid] | – | – | neuroprotection after OGD by VLC-PUFA precursor (listed as 34:6): elicit neuroprotection |
| CC/C=C\C[C@H](O)\C=C/C=C/C=C/[C@H](O)C/C=C\C/C=C\CCCCCCCCCCCCC(=O)OC [ELV-N32-Me, methyl (14Z,17Z,20R,21E,23E,25Z,27S,29Z)-20,27-dihydroxydotriaconta-14,17,21,23,25,29-hexaenoate] | elicited neuroprotection | – | – |
| CC/C=C\C[C@H](O)\C=C/C=C/C=C/[C@H](O)C/C=C\C/C=C\CCCCCCCCCCCCC(=O)[O-].[Na+] [ELV-N32-Na, sodium (14Z,17Z,20R,21E,23E,25Z,27S,29Z)-20,27-dihydroxydotriaconta-14,17,21,23,25,29-hexaenoate] | elicited neuroprotection | positive rightward shift | – |
| CC/C=C\C[C@H](O)\C=C/C=C/C=C/[C@H](O)C/C=C\C/C=C\CCCCCCCCCCCCCCC(=O)OC [ELV-N34-Me, methyl (16Z,19Z,22R,23E,25E,27Z,29S,31Z)-22,29-dihydroxytetratriaconta-16,19,23,25,27,31-hexaenoate] | elicited neuroprotection | positive rightward shift | – |
| CC/C=C\C[C@H](O)\C=C/C=C/C=C/[C@H](O)C/C=C\C/C=C\CCCCCCCCCCCCCCC(=O)[O-].[Na+] [ELV-N34-Na, sodium (16Z,19Z,22R,23E,25E,27Z,29S,31Z)-22,29-dihydroxytetratriaconta-16,19,23,25,27,31-hexaenoate] | elicited neuroprotection | – | – |
